A short description of assay [1]: Inhibition of Ribosomal protein S6 kinase in human THP-1 cells by ELISA analysis.
In assay [2] the target is PI3K catalytic subunit gamma. The assay can be described thus: Inhibition of P13Kgamma (unknown origin) in the presence of ATP by scintillation proximity assay.
For assay [3], the target named is PI3K catalytic subunit beta. Nature of the assay: Inhibition of P13Kbeta (unknown origin) in the presence of ATP by scintillation proximity assay.

On to `CC(NC(=O)c1c(N)nn2cccnc12)c1cc(Cl)c2c(C#N)ncn2c1N1CCS(=O)(=O)C(C)C1` (stereo unspecified), for which, in assay [1], the IC50 is below 300 nM.
Turning to `Cc1cc(S(=O)(=O)N[C@H]2CC[C@H](O)CC2)ccc1-c1cnc2c(N)c(Cl)ccn12`, the IC50 in assay [2] was below 100 nM.
In the case of `Cc1cc(S(=O)(=O)N[C@H]2CC[C@H](O)CC2)ccc1-c1cnc(N)c(C(=O)C2CC2)n1`, the IC50 in assay [3] is 400 nM.
With `Cc1ncc(-c2cc(-c3ccc(S(=O)(=O)NCC(C)(C)O)cc3C)cnc2N)o1`, the IC50 in assay [3] turned out to be 1700 nM.
For `Clc1ccc(Cn2cc(-c3ccnc(-c4ncc(-c5ccccc5)[nH]4)c3)cn2)cc1` [US11352340, Example 1], in assay [2], the IC50 is below 50 nM.
Same read-out and setting: next, `Cc1nnc(-c2cc(-c3cc4c(c(S(C)(=O)=O)c3)C(=O)N([C@@H](C)C3CC3)C4)ccn2)[nH]1` [US11396502, Example 12]: below 100 nM.

Values taken from BindingDB's records for PubMed 38988222 (Hebei University of Science & Technology).
